Common to all, as to format: cell-based
One test deals with H358 (G12C) cells. The experiment in a line: Cell viability assay (CELLTITER-GLO), H358 cells. Conditions: Homo sapiens, NCI-H358, 72 h, Inhibition of cancerous cells, 3 days incubation, luminescence. As for the experimental part: (§1) AsPC-1, H358, and SW48 cells were cultured in RPMI 1640 media supplemented with 10% fetal bovine serum, streptomycin, and penicillin. Lovo and SW480 cells were cultured in DMEM media supplemented with 10% fetal bovine serum, streptomycin, and penicillin. The cell lines were plated in their respective medium supplemented with 2.5% fetal bovine serum, streptomycin, and penicillin. All cell lines were plated in white walled 96-well plates at 2,000 cells/well or 384-well plates at 500 cells/well, except Lovo, which were plated at 4,000 or 1,000 cells/well, respectively. The cells were incubated in DMSO (control) or a compound for 3 days at 37° C. under 5% CO2. A CELLTITER-GLO® reagent ([…] was then added to each well. After a 10 min incubation with shaking, luminescence was measured using an ENVISION® multimode plate reader. IC50 values are summarized in Table 1.

In a further test the test system is SW480 (G12V) cells. The experiment in a line: Cell viability assay (CELLTITER-GLO), SW480 cells. Conditions: Homo sapiens, 72 h, Inhibition of cancerous cells, 3 days incubation, luminescence. As for the experimental part:
as §1
In general terms: Cellular ATP, detected with luciferase, serves as a proxy for viable cell number.

The next test relates to AsPC-1 (G12D) cells. The experiment in a line: Cell viability assay (CELLTITER-GLO), AsPC-1 cells. Particulars: Homo sapiens, ASPC1, 72 h, Inhibition of cancerous cells, 3 days incubation, luminescence. The procedure:
as §1

The next test deals with Lovo (G13D) cells. The experiment in a line: Cell viability assay (CELLTITER-GLO), Lovo cells. Particulars: Homo sapiens, 72 h, Inhibition of cancerous cells, 3 days incubation, luminescence. The procedure: as §1
The test system of the next test is SW48 (wt) cells. The experiment in a line: Cell viability assay (CELLTITER-GLO), SW48 cells. Particulars: Homo sapiens, 72 h, Inhibition of cancerous cells, 3 days incubation, luminescence. The procedure: as §1

In general, IC50 refers to the concentration that gives 50% inhibition. As to `CNCc1ccccc1-c1csc(C(C)Nc2nc(C)nc3cc(OCCCCCCCN4CCC(C(F)(F)F)CC4)c(OC)cc23)c1` (stereo in doubt) [Compound A66, (R)-6-Methoxy-2-methyl-N-(1-(4-(2-((methylamino)methyl)phenyl)thiophen-2-yl)ethyl)-7-((7-(4-(trifluoromethyl)piperidin-1-yl)heptyl)oxy)quinazolin-4-amine], the IC50 in the test with H358 (G12C) cells was found to be 1.2 µM; with SW480 (G12V) cells it was 0.55 µM; in the test with AsPC-1 (G12D) cells, 2 µM; in the test with Lovo (G13D) cells, 1.1 µM; in the test on SW48 (wt) cells, 0.82 µM.
With `COc1cc2c(N[C@H](C)c3cccc(Br)c3)nc(C)nc2cc1OCCCCCCCc1ccncc1` [Compound A43, (R)—N-(1-(3-Bromophenyl)ethyl)-6-methoxy-2-methyl-7-((7-(pyridin-4-yl)heptyl)-oxy)quinazolin-4-amine], the IC50 in the test with H358 (G12C) cells was found to be 5.4 µM; in the test with SW480 (G12V) cells, 1.9 µM; in the test on Lovo (G13D) cells, 2.2 µM; in the test on SW48 (wt) cells it was 3.6 µM.
Take `COc1cc2c(N[C@H](C)c3cccc(Br)c3)nc(C)nc2cc1OCCCCCCCN1CCCC(F)(F)C1` [Compound A44, (R)—N-(1-(3-Bromophenyl)ethyl)-7-((7-(3,3-difluoropiperidin-1-yl)heptyl)oxy)-6-methoxy-2-methylquinazolin-4-amine]: the IC50 in the test on H358 (G12C) cells came out at 1.9 µM; in the test with SW480 (G12V) cells it was 1.2 µM; in the test with Lovo (G13D) cells, 0.55 µM; with SW48 (wt) cells it was 2 µM.
`CNCc1ccccc1-c1csc([C@@H](C)Nc2nc(C)nc3cc(OCCCCCOC(=O)CC45CC6CC(CC(C6)C4)C5)c(OC)cc23)c1` [Compound A45, 5-((6-Methoxy-2-methyl-4-(((R)-1-(4-(2-((methylamino)methyl)phenyl)thiophen-2-yl)ethyl)amino)quinazolin-7-yl)oxy)pentyl 2-((3r,5r,7r)-adamantan-1-yl)acetate]: the IC50 with H358 (G12C) cells stood at 0.85 µM; in the test on SW480 (G12V) cells it was 0.57 µM; with Lovo (G13D) cells, 0.45 µM; with SW48 (wt) cells, 1 µM.
In the case of `CNCc1ccccc1-c1csc([C@H](C)Nc2nc(C)nc3cc(OCCCCCOC(=O)CC45CC6CC(CC(C6)C4)C5)c(OC)cc23)c1` [Compound A46, 5-((6-Methoxy-2-methyl-4-(((S)-1-(4-(2-((methylamino)methyl)phenyl)thiophen-2-yl)ethyl)amino)quinazolin-7-yl)oxy)pentyl 2-((3r,5r,7r)-adamantan-1-yl)acetate], the IC50 in the test with H358 (G12C) cells is 1.5 µM; in the test on SW480 (G12V) cells it was 1.2 µM; with Lovo (G13D) cells, 1.5 µM; in the test with SW48 (wt) cells, 1.1 µM.
As to `CNCc1ccccc1-c1csc([C@@H](C)Nc2nc(C)nc3cc(OCCOCCOC(=O)CC45CC6CC(CC(C6)C4)C5)c(OC)cc23)c1` [Compound A47, 2-(2-((6-Methoxy-2-methyl-4-(((R)-1-(4-(2-((methylamino)methyl)phenyl)-thiophen-2-yl)ethyl)amino)quinazolin-7-yl)oxy)ethoxy)ethyl 2-((3r,5r,7r)-adamantan-1-yl)acetate], the IC50 in the test on H358 (G12C) cells is 0.76 µM; in the test with SW480 (G12V) cells, 0.58 µM; in the test with Lovo (G13D) cells, 0.43 µM; in the test with SW48 (wt) cells, 0.64 µM.
For `CNCc1ccccc1-c1csc([C@H](C)Nc2nc(C)nc3cc(OCCOCCOC(=O)CC45CC6CC(CC(C6)C4)C5)c(OC)cc23)c1` [Compound A48, 2-(2-((6-Methoxy-2-methyl-4-(((S)-1-(4-(2-((methylamino)methyl)phenyl)-thiophen-2-yl)ethyl)amino)quinazolin-7-yl)oxy)ethoxy)ethyl 2-((3r,5r,7r)-adamantan-1-yl)acetate], the IC50 in the test on H358 (G12C) cells amounted to 0.94 µM; in the test with SW480 (G12V) cells, 0.57 µM; in the test with Lovo (G13D) cells it was 0.58 µM; in the test on SW48 (wt) cells it was 0.57 µM.
`CNCc1ccccc1-c1csc([C@@H](C)Nc2nc(C)nc3cc(OCCNC(=O)CC45CC6CC(CC(C6)C4)C5)c(OC)cc23)c1` [Compound A51, 2-((3r,5r,7r)-Adamantan-1-yl)-N-(2-((6-methoxy-2-methyl-4-(((R)-1-(4-(2-((methylamino)methyl)phenyl)thiophen-2-yl)ethyl)amino)quinazolin-7-yl)oxy)ethyl)acetamide]: the IC50 in the test with H358 (G12C) cells was found to be 1.1 µM; with SW480 (G12V) cells, 0.62 µM; in the test with Lovo (G13D) cells, 0.47 µM; with SW48 (wt) cells, 0.75 µM.
As to `CNCc1ccccc1-c1csc([C@H](C)Nc2nc(C)nc3cc(OCCNC(=O)CC45CC6CC(CC(C6)C4)C5)c(OC)cc23)c1` [Compound A52, 2-((3r,5r,7r)-Adamantan-1-yl)-N-(2-((6-methoxy-2-methyl-4-(((S)-1-(4-(2-((methylamino)methyl)phenyl)thiophen-2-yl)ethyl)amino)quinazolin-7-yl)oxy)ethyl)acetamide], the IC50 was found to be 1.2 µM in the test with H358 (G12C) cells, 0.61 µM in the test with SW480 (G12V) cells, 0.43 µM with Lovo (G13D) cells and 0.89 µM with SW48 (wt) cells.
In turn, `CNCc1ccccc1-c1csc([C@H](C)Nc2nc(C)nc3cc(OCCCCCCC(C)(C)C)c(OC)cc23)c1` [Compound A59, (S)-7-((7,7-Dimethyloctyl)oxy)-6-methoxy-2-methyl-N-(1-(4-(2-((methylamino)-methyl)phenyl)thiophen-2-yl)ethyl)quinazolin-4-amine] came in with an IC50 in the test on AsPC-1 (G12D) cells of 3.1 µM.
With `CNCc1ccccc1-c1csc([C@@H](C)Nc2nc(C)nc3cc(OCCCCCCCC4CCC(c5ccccc5)CC4)c(OC)cc23)c1` (stereo partly drawn) [Compound A60, (R)-6-Methoxy-2-methyl-N-(1-(4-(2-((methylamino)methyl)phenyl)thiophen-2-yl)ethyl)-7-((7-(4-phenylcyclohexyl)heptyl)oxy)quinazolin-4-amine], the IC50 came out at 0.53 µM in the test with H358 (G12C) cells; 0.25 µM in the test with SW480 (G12V) cells; 0.51 µM in the test on AsPC-1 (G12D) cells; 0.24 µM in the test with Lovo (G13D) cells; 0.17 µM with SW48 (wt) cells.
Take `COc1cc2c(N[C@H](C)c3cccc(Br)c3)nc(C)nc2cc1OCCCCc1ccncc1` [Compound A73, (R)—N-(1-(3-Bromophenyl)ethyl)-6-methoxy-2-methyl-7-(4-(pyridin-4-yl)-butoxy)quinazolin-4-amine]: the IC50 with H358 (G12C) cells is 2.6 µM; in the test on SW480 (G12V) cells, 1 µM; in the test on Lovo (G13D) cells it was 1.4 µM; with SW48 (wt) cells, 4.1 µM.
In the case of `COc1cc2c(N[C@H](C)c3cccc(Br)c3)nc(C)nc2cc1OCCCCCCCN1C(C)(C)CCCC1(C)C` [Compound A74, (R)—N-(1-(3-Bromophenyl)ethyl)-6-methoxy-2-methyl-7-((7-(2,2,6,6-tetramethyl-piperidin-1-yl)heptyl)oxy)quinazolin-4-amine], the IC50 with H358 (G12C) cells is 0.65 µM; with SW480 (G12V) cells it was 0.42 µM; with Lovo (G13D) cells, 0.34 µM; in the test on SW48 (wt) cells, 0.56 µM.
Take `COc1cc2c(N[C@H](C)c3cccc(Br)c3)nc(C)nc2cc1OCCCCCCCN1CCOCC1` [Compound A75, (R)—N-(1-(3-Bromophenyl)ethyl)-6-methoxy-2-methyl-7-((7-morpholinoheptyl)-oxy)quinazolin-4-amine]: the IC50 in the test with H358 (G12C) cells was found to be 0.73 µM; with SW480 (G12V) cells it was 0.59 µM; in the test with Lovo (G13D) cells, 0.25 µM; in the test on SW48 (wt) cells it was 0.66 µM.
The corresponding values for `COc1cc2c(N[C@H](C)c3cccc(Br)c3)nc(C)nc2cc1OCCCCCCCC(=O)N[C@H]1CCC(=O)NC1=O` [Compound A77, 8-((4-(((R)-1-(3-Bromophenyl)ethyl)amino)-6-methoxy-2-methylquinazolin-7-yl)oxy)-N—((S)-2,6-dioxopiperidin-3-yl)octanamide] are 6.7 µM, 3.9 µM, 2.9 µM and 5.1 µM.

The values above are taken from US20240197888A1, “SOS1 PROTEIN DEGRADERS, PHARMACEUTICAL COMPOSITIONS THEREOF, AND THEIR THERAPEUTIC APPLICATIONS” (BioTheryX, Inc., priority 2021, published 2024).
